Tests used:
HIF-2α [1] = target: T1, HIF-2α (Homo sapiens, UniProt Q99814); experiment: HIF-2α Luciferase Reporter Assay (serum free) in HIF-Luc-786-0 cells; type: cell-based; details: Opti-MEM, 786-0 reporter cells, 20 hours incubation
Protocol: (§1) Generation of HIF-2α Luciferase 786-0 Cell Line:
(§2) Stable cell lines were generated by transducing 786-0 cells (ATCC, CRL-1932) with Cignal Lenti HIF Luc Reporter lentivirus (CLS-007L, Qiagen) according to the manufacturer's guidelines. In brief, 0.3×10^6 786-0 cells were transduced with lentivirus at a multiplicity of infection (MOI) of 25 for 24 hours. After transduction, cells were replenished with fresh RPMI 1640 Medium (Cat. No. 11875085, Thermo Fisher) supplemented with 10% FBS (Cat. No. A3160502, Gibco), 2 mM GlutaMAX™ (Cat. No. 35050-061, Invitrogen) and 100 units of penicillin and 100 μg of streptomycin/mL (Cat. No 15070063, Thermo Fisher) for another 24 hours. Antibiotic selection was performed in cell media containing 4 μg/mL of puromycin. After 7 days of antibiotic selection, stable pools of surviving cells were expanded and used in a luciferase reporter assay.
HIF-2α Luciferase Reporter Assay (Serum Free):
On day one, 20 uL of HIF-Luc-786-0 cells in Opti-MEM™ (Cat. No. 31985088, Thermo Fisher) were seeded into each well of a 384 well white opaque plate (Corning 3570) and incubated at 37° C. and 5% CO2. Twenty microliters of 2× test compounds in Opti-MEM™ were added to cells after 4 hours of incubation. Final assay conditions comprised 20,000 cells per well in 1% DMSO with test compound concentrations ranging from 50 uM to 0 uM. After 20 hours incubation at 37° C. and 5% CO2, luciferase activity was determined using ONE-Glo™ Luciferase Assay Reagent (E6110, Promega) following the manufacture's recommended procedure. Briefly, 40 uL of ONE-Glo™ luciferase reagents were added to each well and luciferase signals were measured using an Envision 2102 Multilabel Reader. Percentage maximum activity in each test well was calculated based on DMSO (maximum activity) and no cell control wells (baseline activity). The IC50 values of the test compounds were determined from compound dose response curves fitted using a standard four parameter fit equation.

HIF-2α [2] = target: T1, HIF-2α; experiment: HIF-2α Luciferase Reporter Assay (serum), HRE-luciferase 786-0 cells in 100% human serum; type: cell-based; details: for IC50: 100% human serum, 786-0 reporter cells, overnight incubation, read-out: Serum Potency; for Serum Shift (approximate): ratio of IC50 in 100% serum to IC50 in serum free conditions
Protocol: as §1, §2
HIF-2α Luciferase Reporter Assay (Serum):
An HRE-luciferase stable reporter 786-0 cell line was maintained in active culture using RPMI 1640 (GIBCO) media supplemented with 1% penicillin-streptomycin, 1% GlutaMAX™, 10% FBS-One Shot (GIBCO) and 4 ug/ml of puromycin (Invitrogen). On the day of the assay, cells were harvested using StemPro™ Accutase™ cell dissociation reagent (GIBCO) and resuspended at 1.5 million cells per milliliter in Opti-MEM™ (GIBCO). 20 ul/well of the resuspended cells were dispensed into a 384 white tissue culture-treated microplate (Corning) and allowed to incubate at 37° C., 5% CO2 for 3 hours. Compounds were prepared by dispensing 0.8 ul of compound in 100% DMSO into a Greiner plate containing 40 ul/well of 100% human serum (Bioreclamation IVT). After 3 hours, media was removed via centrifugation at 500 RPM for 30 seconds and 30 ul/well of compound diluted in human serum was added. The plate was incubated overnight at 37° C., 5% CO2. The following day, ONE-Glo™ was prepared per vendors instructions. The cell plate was removed from the incubator and the human serum was removed from the plate using centrifugation at 500 RPM for 30 seconds. Following the removal of human serum, 40 ul/well of room temperature Opti-MEM™ was added to the plate and allowed to equilibrate to room temperature for 2 hours. 40 ul/well of ONE-Glo™ reagent was added and allowed to incubate for 10 minutes before reading the luminescence signal on the Envision (PerkinElmer). Data was analyzed using 4-parameter logistic equation to generate IC50.

T1 sequence (Q99814 whole entry): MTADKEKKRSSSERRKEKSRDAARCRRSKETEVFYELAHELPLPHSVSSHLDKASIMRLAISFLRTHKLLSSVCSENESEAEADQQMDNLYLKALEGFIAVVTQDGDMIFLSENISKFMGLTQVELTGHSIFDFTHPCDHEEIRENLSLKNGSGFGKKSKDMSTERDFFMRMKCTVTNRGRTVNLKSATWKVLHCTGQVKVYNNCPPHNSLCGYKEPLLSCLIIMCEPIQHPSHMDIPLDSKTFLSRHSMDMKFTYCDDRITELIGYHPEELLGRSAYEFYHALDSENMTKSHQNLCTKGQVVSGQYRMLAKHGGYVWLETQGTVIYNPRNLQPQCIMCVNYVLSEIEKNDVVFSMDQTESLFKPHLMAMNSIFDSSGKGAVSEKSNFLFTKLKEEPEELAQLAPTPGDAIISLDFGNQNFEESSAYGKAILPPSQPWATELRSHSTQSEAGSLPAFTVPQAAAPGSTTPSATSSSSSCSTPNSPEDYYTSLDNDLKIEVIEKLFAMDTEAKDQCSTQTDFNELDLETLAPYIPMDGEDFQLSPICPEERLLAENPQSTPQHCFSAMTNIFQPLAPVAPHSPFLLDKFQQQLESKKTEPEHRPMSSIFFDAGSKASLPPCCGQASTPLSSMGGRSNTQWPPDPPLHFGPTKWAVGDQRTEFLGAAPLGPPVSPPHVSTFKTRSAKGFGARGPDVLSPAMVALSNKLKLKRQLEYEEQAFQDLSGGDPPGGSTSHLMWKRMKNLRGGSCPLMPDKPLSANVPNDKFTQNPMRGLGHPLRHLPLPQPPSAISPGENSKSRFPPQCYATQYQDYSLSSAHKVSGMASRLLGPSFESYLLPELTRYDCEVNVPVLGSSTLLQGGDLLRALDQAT

IC50 (HIF-2α [1]) [nM] | IC50 (HIF-2α [2]) [nM] | Serum Shift (approximate) (HIF-2α [2]) | Compound
< 100 | 100 to 1000 | 7 | O[C@H]1c2c(C(F)(F)F)nn([C@@H]3CCCC(F)(F)C3)c2[C@@H](F)[C@H]1F (single isomer, unassigned) [136/137 DIAST-2]
100 to 1000 | 100 to 1000 | 4 | O[C@H]1c2c(C(F)(F)F)nn([C@@H]3CC[C@@H](F)[C@@H](F)C3)c2[C@@H](F)[C@H]1F (single isomer, unassigned) [141/142 DIAST-1]
100 to 1000 | 100 to 1000 | 3 | O[C@H]1c2c(C(F)(F)F)nn([C@H]3CC[C@H](F)[C@H](F)C3)c2[C@@H](F)[C@H]1F (single isomer, unassigned) [141/142 DIAST-2]
100 to 1000 | > 1000 | 3 | O=S1(=O)CC(Cn2nc(C(F)(F)F)c3c2[C@H](F)C(F)(F)[C@H]3O)C1 (single isomer, unassigned) [144/145 DIAST-1]
100 to 1000 | 100 to 1000 | 3 | O=S1(=O)CC(Cn2nc(C(F)(F)F)c3c2[C@@H](F)C(F)(F)[C@H]3O)C1 (single isomer, unassigned) [144/145 DIAST-2]
< 100 | < 100 | 5 | O[C@H]1c2c(C(F)(F)F)nn([C@@H]3C[C@@H](F)[C@@H](F)[C@@H](F)C3)c2[C@H](F)C1(F)F (single isomer, unassigned) [146/147 DIAST-1]
< 100 | 100 to 1000 | 8 | O[C@H]1c2c(C(F)(F)F)nn([C@@H]3C[C@@H](F)[C@@H](F)[C@@H](F)C3)c2[C@@H](F)C1(F)F (single isomer, unassigned) [146/147 DIAST-2]
< 100 | < 100 | 9 | CO[C@H](CCn1nc(C(F)(F)F)c2c1[C@H](F)C(F)(F)[C@H]2O)C(F)(F)F (single isomer, unassigned) [148/149 DIAST-1]
< 100 | 100 to 1000 | 12 | CO[C@H](CCn1nc(C(F)(F)F)c2c1[C@@H](F)C(F)(F)[C@H]2O)C(F)(F)F (single isomer, unassigned) [148/149 DIAST-2]
100 to 1000 | > 1000 | 5 | O[C@H]1c2c(C(F)(F)F)nn([C@H]3CCO[C@@H](C(F)(F)F)C3)c2[C@@H](F)[C@H]1F (single isomer, unassigned) [150/151 DIAST-1]
100 to 1000 | > 1000 | 12 | O[C@H]1c2c(C(F)(F)F)nn(CCCC(F)(F)F)c2[C@@H](F)C1(F)F (single isomer, unassigned) [Example 123]
< 100 | > 1000 | 11 | O[C@H]1c2c(C(F)(F)F)nn(CCCC(F)(F)F)c2[C@H](F)C1(F)F (single isomer, unassigned) [Example 124]
< 100 | > 1000 | 13 | O[C@H]1c2c(C(F)(F)F)nn(C3CC4(C3)CC(F)(F)C4)c2[C@@H](F)[C@@H]1F (single isomer, unassigned) [Example 134]
< 100 | > 1000 | 12 | O[C@H]1c2c(C(F)(F)F)nn(C3CC4(C3)CC(F)(F)C4)c2[C@H](F)[C@H]1F (single isomer, unassigned) [Example 135]
< 100 | 100 to 1000 | 9 | O[C@@H]1c2c(C(F)(F)F)nn([C@H]3CC[C@H](F)[C@H](F)C3)c2[C@H](F)C1(F)F (single isomer, unassigned) [Example 154]
< 100 | 100 to 1000 | 4 | O=S(=O)(CCn1nc(C(F)(F)F)c2c1CCC(F)(F)[C@H]2O)C(F)(F)F [Example 8, (4S)-5,5-difluoro-3-(trifluoromethyl)-1-[2-(trifluoromethylsulfonyl)ethyl]-6,7-dihydro-4H-indazol-4-ol]
< 100 | < 100 | 6 | CC(CCn1nc(C(F)(F)F)c2c1CCC(F)(F)[C@H]2O)OC(F)(F)F (stereo partly drawn) [Example 14, (4S)-5,5-difluoro-1-[3-(trifluoromethoxy)butyl]-3-(trifluoromethyl)-6,7-dihydro-4H-indazol-4-ol]
< 100 | < 100 | 6 | CC(CCn1nc(C(F)(F)F)c2c1CCC(F)(F)[C@H]2O)OC(F)F (stereo partly drawn) [Example 15, (4S)-1-[3-(difluoromethoxy)butyl]-5,5-difluoro-3-(trifluoromethyl)-6,7-dihydro-4H-indazol-4-ol]
100 to 1000 | 100 to 1000 | 4 | O[C@H]1c2c(C(F)(F)F)nn(CCSC(F)F)c2CCC1(F)F [Example 18, (4S)-1-[2-(difluoromethylsulfanyl)ethyl]-5,5-difluoro-3-(trifluoromethyl)-6,7-dihydro-4H-indazol-4-ol]
< 100 | 100 to 1000 | 8 | O[C@H]1c2c(C(F)(F)F)nn(CCCOC(F)(F)F)c2CCC1(F)F [Example 30, (4S)-5,5-difluoro-1-[3-(trifluoromethoxy)propyl]-3-(trifluoromethyl)-6,7-dihydro-4H-indazol-4-ol]
100 to 1000 | > 1000 | 17 | CCC(CCn1nc(C(F)(F)F)c2c1CCC(F)(F)[C@H]2O)C(F)(F)F (stereo partly drawn) [Example 43, (4S)-5,5-difluoro-3-(trifluoromethyl)-1-[3-(trifluoromethyl)pentyl]-6,7-dihydro-4H-indazol-4-ol]
100 to 1000 | 100 to 1000 | 3 | O[C@H]1c2c(C(F)(F)F)nn(CCCC(F)(F)F)c2CC[C@H]1F [Example 51, (4S,5R)-5-fluoro-1-(4,4,4-trifluorobutyl)-3-(trifluoromethyl)-4,5,6,7-tetrahydroindazol-4-ol]
100 to 1000 | > 1000 | 7 | O[C@H]1c2c(C(F)(F)F)nn(CCCC(F)(F)F)c2CC[C@@H]1F [Example 52, (4S,5S)-5-fluoro-1-(4,4,4-trifluorobutyl)-3-(trifluoromethyl)-4,5,6,7-tetrahydroindazol-4-ol]
100 to 1000 | 100 to 1000 | 1 | CC(C#N)CCn1nc(C(F)(F)F)c2c1CC(F)(F)[C@H]2O (stereo partly drawn) [Example 55, 4-[(4S)-5,5-difluoro-4-hydroxy-3-(trifluoromethyl)-4,6-dihydrocyclopenta[c]pyrazol-1-yl]-2-methylbutanenitrile]
100 to 1000 | 100 to 1000 | 2 | CS(=O)(=O)CCn1nc(C(F)(F)F)c2c1CC(F)(F)[C@H]2O [Example 56, (4S)-5,5-difluoro-1-(2-methylsulfonylethyl)-3-(trifluoromethyl)-4,6-dihydrocyclopenta[c]pyrazol-4-ol]

Compound | IC50 (HIF-2α [1]) [nM] | IC50 (HIF-2α [2]) [nM] | Serum Shift (approximate) (HIF-2α [2])
COC(C)CCn1nc(C(F)(F)F)c2c1CCC(F)(F)[C@H]2O (stereo partly drawn) [Example 13, (4S)-5,5-difluoro-1-(3-methoxybutyl)-3-(trifluoromethyl)-6,7-dihydro-4H-indazol-4-ol] | 100 to 1000 | 100 to 1000 | 2
O[C@H]1c2c(C(F)(F)F)nn(C3CCC(F)(F)CC3)c2CC1(F)F [Example 53, (4S)-1-(4,4-difluorocyclohexyl)-5,5-difluoro-3-(trifluoromethyl)-4,6-dihydrocyclopenta[c]pyrazol-4-ol] | < 100 | 100 to 1000 | 7

Source: patent publication US12071411B2, “Inhibitors of HIF-2α and methods of use thereof” (ARCUS BIOSCIENCES, INC., priority 2021, dated 2024)
